# Laboratory results as given in paper PMC8244813 (Nutrition and cancer, 2019).
# Read-outs that look alike come from different tables or passages of the source.
# Columns and labels:
# [1] = SFN metabolites in plasma by LC-MS/MS; conditions: BSE group n=42; for Plasma level of individual SFN metabolite, postintervention, Mean (SE): after 200 μmol SFN daily, 4–8 wk; for Plasma level of individual SFN metabolite, preintervention, Mean (SE): baseline before supplementation
# [2] = tested on: AMACR expression in colon cancer Caco-2 cells; conditions: SFN treatment; cited from earlier work
# [3] = tested on: AMACR mRNA in LNCaP cells; conditions: 6 and 24 h after a single SFN treatment; cited from earlier work
# [4] = in vivo
Compound,"Plasma level of individual SFN metabolite, change (post minus pre), Mean (SE) [1]","Plasma level of individual SFN metabolite, postintervention, Mean (SE) [1]","Plasma level of individual SFN metabolite, preintervention, Mean (SE) [1]",AMACR expression in colon cancer Caco-2 cells [2],AMACR mRNA levels in LNCaP cells [3],"Plasma level of individual SFN metabolite, change (post minus pre), Mean (SE) [4]","Plasma level of individual SFN metabolite, preintervention, Mean (SE) [4]"
"C[S+]([O-])CCCCN=C=S (stereo not shown) [SFN, sulforaphane]",0.0001 (0.0001) μM,0.0001 (0.0001) μM,0.00 (0.00) μM,significantly decrease AMACR expression,significantly downregulated,–,–
"C[S+]([O-])CCCCNC(=S)SCC(N)C(=O)NCC(=O)O (stereo not shown) [SFN-CG, SFN-cysteinylglycine]",–,–,–,–,–,0.04 (0.01) μM,0.00 (0.00) μM
"C[S+]([O-])CCCCNC(=S)SCC(N)C(=O)O (stereo not shown) [SFN-Cys, SFN-cysteine]",0.02 (0.01) μM,0.02 (0.01) μM,0.00 (0.00) μM,–,–,–,–
"C[S+]([O-])CCCCNC(=S)SC[C@H](NC(=O)CC[C@H](N)C(=O)O)C(=O)NCC(=O)O (stereo partly shown) [SFN-GSH, SFN-glutathione]",0.03 (0.01) μM,0.03 (0.01) μM,0.00 (0.00) μM,–,–,–,–
"CC(=O)N[C@@H](CSC(=S)NCCCC[S+](C)[O-])C(=O)O (stereo partly drawn) [SFN-NAC, SFN N-acetyl-L-cysteine]",0.03 (0.01) μM,0.03 (0.01) μM,0.00 (0.00) μM,–,–,–,–
